Source: patent publication US4584186A, “Radiolabelled metallocene derivatives” (Mallinckrodt, Diagnostica (Holland) B.V., priority 1982, dated 1986)
Structures can show the parent of a compound that is named as a salt.

Tests used:
[1] = urinary excretion and organ distribution in mice with increasing doses of inactive carrier; conditions: inactive carrier for labelled ruthenocenoylglycine
[2] = rat, in vivo; cited from earlier work
[3] = organ distribution of radioactivity in mouse; conditions: approx. 0.5 umole/kg
[4] = rabbit, in vivo
[5] = renal clearance after administration to dogs (single injection method); assay type: in vivo, dog (beagle); conditions: for clearance: intravenous; for clearance in words: dog
Experimental: The renal clearance by tubular excretion is a measure for the renal function was determined in two dogs, viz. beagles with body weights of 13.8 kg (dog a) and 14.8 kg (dog b) respectively by the generally recognized single injection method, in broad outline as described in Example VII. As radioactive materials were used iodine-131 labelled o-iodohippuric acid sodium salt (I-131 Hippuran), indium-111 DTPA (diethylene triamine pentaacetic acid) and ruthenium-97 labelled ruthenocenoylglycine. Indium-111DTP is also recommended to be used in radiodiagnostic compositions for examination of the renal glomerular filtration function. The time intervals between the various administrations were chosen in such a way, that no interference between the radioactive materials could occur. The radioactive materials were administered intraveneously, blood samples were collected 5, 10, 15, 30, 60 and 90 minutes after administration. The emitted radioactivity was determined with a gamma camera. The decreasing radioactivity of the successive blood samples is a measure for the elimination of the radioactive compound from the blood.

Molecule: O=C(O)CNC(=O)c1ccccc1I [ortho-iodohippuric acid (salt), ortho-iodohippuric acid]
- results when used as inactive carrier instead of ruthenocenoyl- or ferrocenoylglycine [1]: Comparable results

Molecule: NC(=O)[c-]1cccc1.[Ru+2].c1cc[cH-]c1 [ruthenocene monocarboxylic acid amide]
- accumulation of radioactivity in lung and liver relative to kidney [2]: at least equal amounts as in the kidney

Molecule: [Ru+2].c1cc[cH-]c1.c1cc[cH-]c1 [ruthenium-103 labelled ruthenocene, ruthenocene]
- accumulation of radioactivity in lung and liver relative to kidney [2]: at least equal amounts as in the kidney

Molecule: CCOC(=O)CNC(=O)[c-]1cccc1.[Ru+2].c1cc[cH-]c1 [Rc glycine ester, ruthenocenoyl ethylglycinate, labelled with ruthenium-103]
- 103Ru conc. kidney ([3]; after 1 hour): 141 dose/% body/wt
- 103Ru conc. kidney ([3]; after 3 hours): 90 dose/% body/wt
- 103Ru conc. kidney ([3]; after 6 hours): 125 dose/% body/wt
- 103Ru conc. liver ([3]; after 1 hour): 43 dose/% body/wt
- 103Ru conc. liver ([3]; after 3 hours): 24 dose/% body/wt
- 103Ru conc. liver ([3]; after 6 hours): 3.5 dose/% body/wt
- 103Ru conc. lung ([3]; after 1 hour): 6 dose/% body/wt
- 103Ru conc. lung ([3]; after 3 hours): 2.6 dose/% body/wt
- 103Ru conc. lung ([3]; after 6 hours): 3.0 dose/% body/wt

Molecule: O=C(O)CNC(=O)[c-]1cccc1.O=C(O)CNC(=O)[c-]1cccc1.[Ru+2] [ruthenocenoyl-1,1'-diglycine]
- accumulation in the kidneys and excretion [4]: very rapid accumulation in the kidneys followed by a rapid excretion

Molecule: O=C(O)CNC(=O)[c-]1cccc1.[Ru+2].c1cc[cH-]c1 [Rc glycine, ruthenocenoylglycine, labelled with ruthenium-103]
- accumulation in the kidneys and excretion [4]: very rapid accumulation in the kidneys followed by a rapid excretion
- renal clearance (general statement) [4]: even faster than that of iodohippuric acid sodium salt labelled with iodine-125
- renal clearance compared with iodine-125 labelled o-iodohippuric acid sodium salt [4]: cleared more rapidly than iodine-125 labelled o-iodohippuric acid sodium salt

Molecule: Nc1ccc(C(=O)NCC(=O)O)cc1 [para-aminohippuric acid (salt), para-aminohippuric acid]
- results when used as inactive carrier instead of ruthenocenoyl- or ferrocenoylglycine [1]: Comparable results

Molecule: indium-111 DTPA (diethylene triamine pentaacetic acid) [In - 111 DTPA]
- clearance ([5]; dog a, beagle 13.8 kg): 79.6 mL/min
- clearance ([5]; dog b, beagle 14.8 kg): 62.2 mL/min
- clearance in words ([5]; comparison of the three radioactive compounds): comparatively slow

Molecule: O=C(O)CNC(=O)[c-]1cccc1.[Ru+2].c1cc[cH-]c1 [Ru-97 ruthenocenoylglycine, ruthenium-97 labelled ruthenocenoylglycine]
- clearance in words ([5]; in vivo): faster than that of labelled o-iodohippuric acid salt
